Results on two molecules are retold here after US8142759B2, “Glyco-molecular imaging method for grade classification of liver fibrosis and its glyco-molecular imaging agent thereof” (Institute of Nuclear Energy Research, priority 2007, dated 2012).

The data set can be described thus: Storage stability at room temperature. The class given is physicochemical.

Turning to `O=C(O)CN(CCN1CC(=O)OC(=O)C1)CCN1CC(=O)OC(=O)C1` [DTPA anhydride], the “storage stability at room temperature” value (water dissolution) is “much unstable”.

Consider `O=C(CN(CCSC(c1ccccc1)(c1ccccc1)c1ccccc1)CC(=O)ON1C(=O)CCC1=O)NCCSC(c1ccccc1)(c1ccccc1)c1ccccc1` [SOCTA, succinimidyl-3,6-diaza-5-oxo-3-[2-((triphenyl-methyl)thio)ethyl]-8-[(triphenylmethyl)-thio]octanoate], for which the “storage time at room temperature” value (air/water stability) is given as “one”.
